Test results from publication PMC9415608, “Design, Synthesis and Biological Investigation of 2-Anilino Triazolopyrimidines as Tubulin Polymerization Inhibitors with Anticancer Activities” (Pharmaceuticals, 2022).

What was measured:
Bovine brain tubulin = assay: Inhibition of [3H]colchicine binding to tubulin; conditions: tubulin 0.5 µM, [3H]colchicine 5 µM, tested compound 5 µM
Experimental: Bovine brain tubulin was purified as described previously. To evaluate the effects of the compounds on tubulin assembly in vitro [80], varying concentrations were preincubated with 10 μM tubulin in 0.8 M monosodium glutamate (pH 6.6) at 30 °C and the reaction mixtures then cooled to 0 °C. After addition of GTP, the mixtures were transferred to 0 °C cuvettes in Beckman Coulter (Brea, CA, USA) DU-7400/DU-7500 recording spectrophotometers equipped with electronic temperature controllers and warmed to 30 °C, and the assembly of tubulin was observed turbidimetrically. […] Inhibition of colchicine binding to tubulin was measured as described before, except that the reaction mixtures contained 0.5 μM tubulin and 5 μM each of [^3H]colchicine and test compound. Only one DEAE-cellulose filter was used per sample, and filtration was by gravity.
Bovine brain tubulin (see ref. [79] for details of purification) was used to examine effects on tubulin polymerization and colchicine binding. Briefly, in the polymerization experiments, different compound concentrations were preincubated with 10 µM tubulin for 15 min at 30 °C and cooled on ice. After GTP was added to each reaction mixture, the samples were transferred to 0 °C cuvettes in recording spectrophotometers with electronic temperature controllers. The temperature was raised to 30 °C over about 30 s, and turbidity development was followed for 20 min at 350 nm. […] In the current studies, [^3H]colchicine (from American Radiolabeled Corp., St. Louis, MO) binding was measured after 10 min at 37 °C. Reaction mixtures contained 0.5 µM tubulin and 5.0 µM each of the [^3H]colchicine and the potential inhibitor, and a single DEAE-cellulose filter was used for each sample, with gravity filtration.

HeLa cells [1] = assay: Cell cycle analysis by flow cytometry (PI); format: cell-based, human
Experimental: For these experiments, HeLa cells were used, which were seeded in 6-well plates at a concentration of 5 × 10^5/well in a final volume of 2 mL culture medium. The cells were then treated with the test compounds for 24 h at the indicated concentrations. After this incubation period, the cells were detached with trypsin-EDTA and harvested by centrifugation. The pellet thus obtained was fixed in 70% ice-cold ethanol.
After this incubation period, the cells were detached with trypsin-EDTA and harvested by centrifugation. The pellet thus obtained was fixed in 70% ice-cold ethanol for at least 1 h. The cells thus fixed were treated with a 0.1% v/v solution of Triton_X-100 in phosphate buffered saline (PBS) containing RNAseA and propidium iodide (PI) at the final concentration of 0.02 mg/mL. The cells were incubated at room temperature for 30 min and then analyzed on a Cytomic FC500 flow cytometer (Beckman Coulter) in the FL3 channel. DNA histograms were analyzed using MultiCycle for Windows (Phoenix Flow Systems, San Diego, CA, USA).

HeLa cells [2] = assay: Apoptosis assay, annexin-V-FITC/PI flow cytometry; format: cell-based, human
Experimental: The quantification of the apoptosis induced by the test compounds was carried out by flow cytometric analysis using the Annexin-V Fluos kit (Roche Diagnostics, Rotkreuz, Switzerland) following the manufacturer’s instructions. The HeLa cells treated with the test compounds for different incubation times and at the indicated concentrations were then labeled with annexin V/FITC and PI and analyzed with Coulter Cytomics FC500 (Beckman Coulter) in the FL1 and FL3 channel, respectively.

[3] = tested on: Wild-type AB zebrafish embryos; assay: Drug toxicity assessment on zebrafish embryos; format: in vivo, Zebrafish (Danio rerio); conditions: 6 hpf to 72 hpf
Experimental: Zebrafish (Danio rerio) were obtained, staged and raised as described previously and maintained according to the OPBA of the Istituto di Ricerca Pediatrica guidelines. All procedures were conducted following the recommendations and the guidelines of the Animal Use Ethics Committee concerning the protection of animals used for scientific purposes.
Wild-type AB zebrafish embryos were treated with chemicals from shield stage (6 hpf) to larval stage (72 hpf) in a 12-well plate, by adding 20 larvae/well for each experimental condition. The zebrafish embryos were treated with compound 3d at the concentration of 30 nm and 300 nM. These concentrations were selected on the basis of the IC50 found above in HeLa cells. The drugs were added directly to the fish water diluted directly from the stock solution in DMSO. […] Subsequently, the treated embryos were kept at a constant temperature (28.5 °C). Embryos are monitored daily through a stereo microscope (Nikon SMZ745T; Nikon, Japan) and the morphological changes as well as the number of dead embryos were evaluated and recorded.

HeLa cell xenograft = assay: Zebrafish xenograft model with DiI-labeled HeLa cells; format: in vivo, Zebrafish (Danio rerio); conditions: 24 h treatment, 30 or 300 nM
From the text: Prior to microinjections into Tg zebrafish embryos (fli1: EGFP), HeLa tumor cells were labeled with the VybrantTM DiI dye (Invitrogen, ThermoFisher, Carlsbad, CA, USA). The fluorescent cells were loaded into borosilicate glass capillary needles (OD/ID: 1.00/0.75 mm, World Precision Instruments (WPI, Friedberg, Germany) and injected (200 cells), through a pneumatic picopump, into the Cuvier duct of 48 hpf embryos previously anesthetized with tricaine (0.02%, Sigma-Aldrich, Milan, Italy).
After injection, the xenograft-harboring larvae were incubated to recover at 34° C in fish water containing phenylthiourea (PTU) to inhibit the pigmentation process. After 2 h from the injection, the embryos were examined to ensure homogeneity of the xenografts. For drug treatments, only successfully injected xenograft larvae were selected, with approximately 200 HeLa fluorescent cells scattered around the caudal area.
The injected xenografts were exposed to the doses of 3d used above with DMSO as control.
For cancer cell imaging and fluorescence quantification, anesthetized embryos were distributed to 96-well plates with one embryo/well. Initially (time 0 h, pre-treatment) and after one-day post-treatment, the tumors were photographed with a Zeiss AxioObserver microscope for live-cell imaging.

COc1cc(-c2ccnc3nc(Nc4ccc(C)cc4)nn23)cc(OC)c1OC [Compound 3d, N-(p-Tolyl)-7-(3,4,5-trimethoxyphenyl)-[1,2,4]triazolo[1,5-a]pyrimidin-2-amine]
Colchicine Binding % Inhibition ± SD (Bovine brain tubulin): 72 ± 5%
concentration at which increase in G2/M cells was evident (HeLa cells [1]; 24 h): 25 nM
effect on cell cycle (G2/M) (HeLa cells [1]; 24 h, 10, 25 or 50 nM): significant G2/M arrest in a concentration-dependent manner
necrotic cells (A−/PI+) (HeLa cells [2]; 50 nM, long incubation times): about 25%
induction of apoptosis (HeLa cells [2]; HeLa, 24 or 48 h): induced, in a concentration- and time-dependent manner, apoptosis
toxicity to zebrafish embryos ([3]; 30 nM in fish water): no morphological abnormalities or embryonic lethality
toxicity to zebrafish embryos ([3]; 300 nM in fish water, edema re-absorbed within the next 24 h): small yolk sac edema in the majority of 48 hpf embryos
fluorescence intensity of tumor xenografts (HeLa cell xenograft): decreased in a dose-dependent manner, reaching statistical significance at 300 nM
number of disseminated cancer cells (HeLa cell xenograft): significantly reduced the number of disseminated cancer cells
